Test: xn = mol fraction of the nth substance listed
Details: 101 kPa, Liquid

OCCO [1,2-ethanediol] + CCCCn1cc[n+](C)c1.F[B-](F)(F)F
x2 = 0
Details | mass density [kg/m3] | viscosity [mPa·s]
293.15 K | 1113.45 | 21.44
303.15 K | 1106.45 | 14.33
313.15 K | 1099.38 | 10.01
323.15 K | 1092.24 | 7.121
333.15 K | 1085 | 5.33
343.15 K | 1077.65 | 4.103
353.15 K | 1070.17 | 3.242

CCCCn1cc[n+](C)c1.F[B-](F)(F)F [1-butyl-3-methylimidazolium tetrafluoroborate] + C[S+](C)[O-]
Details | mass density [kg/m3] | viscosity [mPa·s]
293.15 K, x1 = 0.0722 | 1120.91 | 3.514
293.15 K, x1 = 0.1764 | 1142.23 | 6.283
293.15 K, x1 = 0.2145 | 1148.47 | 7.911
293.15 K, x1 = 0.3225 | 1162.89 | 13.46
293.15 K, x1 = 0.4189 | 1172.83 | 20.76
293.15 K, x1 = 0.607 | 1186.94 | 42.17
293.15 K, x1 = 0.6557 | 1188.45 | 48.88
293.15 K, x1 = 0.8283 | 1197.44 | 83.33
293.15 K, x1 = 0.9155 | 1201.03 | 107.2
293.15 K, x1 = 1 | 1204.44 | 136.9
298.15 K, x1 = 0.0722 | 1116.22 | –
298.15 K, x1 = 0.1764 | 1137.84 | –
298.15 K, x1 = 0.2145 | 1144.16 | –
298.15 K, x1 = 0.3225 | 1158.77 | –
298.15 K, x1 = 0.4189 | 1168.84 | –
298.15 K, x1 = 0.607 | 1182.57 | –
298.15 K, x1 = 0.6557 | 1185.38 | –
298.15 K, x1 = 0.8283 | 1193.78 | –
298.15 K, x1 = 0.9155 | 1197.43 | –
298.15 K, x1 = 1 | 1200.89 | –
303.15 K, x1 = 0.0722 | 1111.54 | 2.827
303.15 K, x1 = 0.1764 | 1133.45 | 4.839
303.15 K, x1 = 0.2145 | 1139.87 | 5.968
303.15 K, x1 = 0.3225 | 1154.66 | 9.732
303.15 K, x1 = 0.4189 | 1164.85 | 14.46
303.15 K, x1 = 0.607 | 1179.32 | 27.68
303.15 K, x1 = 0.6557 | 1181 | 31.52
303.15 K, x1 = 0.8283 | 1190.12 | 51.43
303.15 K, x1 = 0.9155 | 1193.83 | 64.87
303.15 K, x1 = 1 | 1197.34 | 81.4
313.15 K, x1 = 0.0722 | 1102.21 | 2.324
313.15 K, x1 = 0.1764 | 1124.71 | 3.845
313.15 K, x1 = 0.2145 | 1131.31 | 4.668
313.15 K, x1 = 0.3225 | 1146.47 | 7.347
313.15 K, x1 = 0.4189 | 1156.91 | 10.58
313.15 K, x1 = 0.607 | 1171.76 | 19.29
313.15 K, x1 = 0.6557 | 1173.63 | 21.66
313.15 K, x1 = 0.8283 | 1182.84 | 33.94
313.15 K, x1 = 0.9155 | 1186.65 | 42.14
313.15 K, x1 = 1 | 1190.27 | 51.79
323.15 K, x1 = 0.0722 | 1092.89 | 1.951
323.15 K, x1 = 0.1764 | 1116.01 | 3.137
323.15 K, x1 = 0.2145 | 1122.79 | 3.767
323.15 K, x1 = 0.3225 | 1138.33 | 5.742
323.15 K, x1 = 0.4189 | 1149.02 | 8.052
323.15 K, x1 = 0.607 | 1164.25 | 14.12
323.15 K, x1 = 0.6557 | 1166.3 | 15.79
323.15 K, x1 = 0.8283 | 1175.62 | 25.01
323.15 K, x1 = 0.9155 | 1179.53 | 29.99
323.15 K, x1 = 1 | 1183.24 | 38.04
333.15 K, x1 = 0.0722 | 1083.58 | 1.668
333.15 K, x1 = 0.1764 | 1107.34 | 2.615
333.15 K, x1 = 0.2145 | 1114.3 | 3.118
333.15 K, x1 = 0.3225 | 1130.22 | 4.618
333.15 K, x1 = 0.4189 | 1141.18 | 6.327
333.15 K, x1 = 0.607 | 1156.79 | 10.69
333.15 K, x1 = 0.6557 | 1158.97 | 11.78
333.15 K, x1 = 0.8283 | 1168.44 | 17.38
333.15 K, x1 = 0.9155 | 1172.45 | 20.96
333.15 K, x1 = 1 | 1176.25 | 24.97
343.15 K, x1 = 0.0722 | 1074.29 | 1.447
343.15 K, x1 = 0.1764 | 1098.7 | 2.222
343.15 K, x1 = 0.2145 | 1105.83 | 2.638
343.15 K, x1 = 0.3225 | 1122.16 | 3.801
343.15 K, x1 = 0.4189 | 1133.38 | 5.104
343.15 K, x1 = 0.607 | 1149.37 | 8.359
343.15 K, x1 = 0.6557 | 1151.6 | 8.977
343.15 K, x1 = 0.8283 | 1161.32 | 13.21
343.15 K, x1 = 0.9155 | 1165.43 | 15.78
343.15 K, x1 = 1 | 1169.32 | 18.49
353.15 K, x1 = 0.0722 | 1064.99 | 1.272
353.15 K, x1 = 0.1764 | 1090.08 | 1.918
353.15 K, x1 = 0.2145 | 1097.39 | 2.278
353.15 K, x1 = 0.3225 | 1114.12 | 3.195
353.15 K, x1 = 0.4189 | 1125.62 | 4.21
353.15 K, x1 = 0.607 | 1141.99 | 6.702
353.15 K, x1 = 0.6557 | 1144.28 | 7.182
353.15 K, x1 = 0.8283 | 1154.24 | 10.34
353.15 K, x1 = 0.9155 | 1158.44 | 12.24
353.15 K, x1 = 1 | 1162.44 | 14.37

CCCCn1cc[n+](C)c1.F[B-](F)(F)F [1-butyl-3-methylimidazolium tetrafluoroborate] + OCCO
Details | mass density [kg/m3] | viscosity [mPa·s]
293.15 K, x1 = 0.0895 | 1133.64 | 19.89
293.15 K, x1 = 0.1758 | 1147.86 | 19.29
293.15 K, x1 = 0.3578 | 1167.8 | 23.44
293.15 K, x1 = 0.4397 | 1174.28 | 23.39
293.15 K, x1 = 0.6482 | 1187.63 | 39.69
293.15 K, x1 = 0.8121 | 1196.19 | 68.29
293.15 K, x1 = 1 | 1204.44 | 136.9
298.15 K, x1 = 0.0895 | 1129.95 | –
298.15 K, x1 = 0.1758 | 1144.07 | –
298.15 K, x1 = 0.3578 | 1163.96 | –
298.15 K, x1 = 0.4397 | 1170.46 | –
298.15 K, x1 = 0.6482 | 1183.91 | –
298.15 K, x1 = 0.8121 | 1192.56 | –
298.15 K, x1 = 1 | 1200.89 | –
303.15 K, x1 = 0.0895 | 1126.26 | 12.66
303.15 K, x1 = 0.1758 | 1140.28 | 12.72
303.15 K, x1 = 0.3578 | 1160.12 | 15.48
303.15 K, x1 = 0.4397 | 1166.64 | 17.5
303.15 K, x1 = 0.6482 | 1180.21 | 26.17
303.15 K, x1 = 0.8121 | 1188.95 | 41.88
303.15 K, x1 = 1 | 1197.34 | 81.4
313.15 K, x1 = 0.0895 | 1118.86 | 8.881
313.15 K, x1 = 0.1758 | 1132.71 | 8.902
313.15 K, x1 = 0.3578 | 1152.49 | 10.87
313.15 K, x1 = 0.4397 | 1159.07 | 12.33
313.15 K, x1 = 0.6482 | 1172.85 | 18.29
313.15 K, x1 = 0.8121 | 1181.74 | 28.17
313.15 K, x1 = 1 | 1190.27 | 51.79
323.15 K, x1 = 0.0895 | 1111.43 | 6.422
323.15 K, x1 = 0.1758 | 1125.13 | 6.528
323.15 K, x1 = 0.3578 | 1144.89 | 8.034
323.15 K, x1 = 0.4397 | 1151.54 | 9.112
323.15 K, x1 = 0.6482 | 1165.56 | 13.41
323.15 K, x1 = 0.8121 | 1174.6 | 20.62
323.15 K, x1 = 1 | 1183.24 | 35.23
333.15 K, x1 = 0.0895 | 1103.95 | 4.88
333.15 K, x1 = 0.1758 | 1117.55 | 4.971
333.15 K, x1 = 0.3578 | 1137.35 | 6.16
333.15 K, x1 = 0.4397 | 1144.07 | 7.005
333.15 K, x1 = 0.6482 | 1158.32 | 10.2
333.15 K, x1 = 0.8121 | 1167.55 | 14.84
333.15 K, x1 = 1 | 1176.25 | 24.97
343.15 K, x1 = 0.0895 | 1096.42 | 3.807
343.15 K, x1 = 0.1758 | 1109.96 | 3.909
343.15 K, x1 = 0.3578 | 1129.84 | 4.87
343.15 K, x1 = 0.4397 | 1136.64 | 5.552
343.15 K, x1 = 0.6482 | 1151.14 | 8.019
343.15 K, x1 = 0.8121 | 1160.56 | 11.41
343.15 K, x1 = 1 | 1169.32 | 18.49
353.15 K, x1 = 0.0895 | 1088.83 | 2.872
353.15 K, x1 = 0.1758 | 1102.35 | 3.163
353.15 K, x1 = 0.3578 | 1122.35 | 3.932
353.15 K, x1 = 0.4397 | 1129.25 | 5.153
353.15 K, x1 = 0.6482 | 1144 | 6.479
353.15 K, x1 = 0.8121 | 1153.54 | 8.692
353.15 K, x1 = 1 | 1162.44 | 14.37

C[S+](C)[O-] [dimethyl sulfoxide] + CCCCn1cc[n+](C)c1.F[B-](F)(F)F
x2 = 0
Details | mass density [kg/m3] | viscosity [mPa·s]
293.15 K | 1100.76 | 2.21
298.15 K | 1095.74 | –
303.15 K | 1090.73 | 1.843
313.15 K | 1080.69 | 1.556
323.15 K | 1070.66 | 1.337
333.15 K | 1060.63 | 1.165
343.15 K | 1050.58 | 1.028
353.15 K | 1040.51 | 0.917

— the NIST ThermoML archive (doi:10.1021/je101206u)
